Source: patent US12509431B2, “1,4-dihydroquinazolinone compounds and uses thereof” (Edgewise Therapeutics, Inc., priority 2022, dated 2025)

Legend:
[1] = biological target: T1, myosin+human ventricle RLC (Sus scrofa, UniProt P79293); experiment: NADH-coupled actin-activated ATPase assay, myosin + human ventricle RLC; type: biochemical; conditions: 2 μM myosin, rabbit skeletal actin, 25° C., 1% DMSO
T1 construct: Full-length myosin was resuspended to 1 mg/mL
Method: (§1) Full-length myosin was resuspended to 1 mg/mL in a buffer containing 500 mM KCl, 10 mM KPi, 15 mM CDTA, pH 8.5. Triton-X was then added to a final concentration of […], and the suspension was agitated for 15 minutes at room temperature to selectively remove the regulatory light chain (RLC). RLC-removed myosin was then precipitated and collected and resuspended in a buffer containing 400 mM KCl, 50 mM Mops, pH 7, 2 mM MgCl2, and 1 mM DTT. Recombinantly expressed and purified human ventricle RLC was added in a 3-fold molar excess to myosin and incubated on ice for 2 hours to allow for reassociation of the RLC onto myosin. Triton (0.1%) was added to the reaction to prevent any non-specific binding events. RLC-exchanged myosin was then precipitated and collected and resuspended in a buffer containing 12 mM PIPES, pH 6.8, […], 2 mM MgCl2, and 1 mM DTT. RLC removal and exchange were confirmed by SDS-PAGE and proteins were visualized using coomassie stain.
(§2) Myosin was resuspended in buffer A (f.c.=12 mM PIPES, pH 6.8, 30 mM KCl, 2 mM MgCl2, 1 mM DTT, 0.1 mg/mL BSA, 0.01% (v/v) Antifoam 204, and 0.6% (v/v) PK/LDH (final reaction contains ≥3.6 U/mL PK and >5.4 U/mL LDH)) at final concentrations of 1 μM for myosin+native RLC and 2 μM for myosin+removed RLC and myosin+human ventricle RLC. Buffer A was then mixed with an equal volume of buffer B (f.c.=12 mM PIPES, pH 6.8, 30 mM KCl, 2 mM MgCl2, 1 mM DTT, 0.1 mg/mL BSA, 0.01% (v/v) Antifoam 204, 0.5 mM NADH, 1.5 mM phosphoenolpyruvate, 1 mM ATP, and 0.3 mg/mL filamentous rabbit skeletal actin) in a 384-well plate. Dose-dependent compound effects were assessed by adding the compounds at varying concentrations between 100 μM and 2 nM, all with a constant final DMSO concentration of 1% v/v. The reactions were run at a constant temperature of 25° C. in the plate reader to monitor the change in A340 over time. Measurements were taken every 90 sec for 75 min to generate raw time-domain absorbance data, which was processed to normalized reaction rates. Normalized enzymatic rates were calculated, using rates observed in 1% (v/v) in DMSO as 100% and 0 slope as 0%. Compound-specific activity curves were generated by plotting the normalized rates versus compound concentration and fitting the data to a 4-parameter logistic model. In addition to the fit parameters, the IC25% was calculated, relative to the 100% normalized value.

myosin+removed RLC = biological target: T2, myosin+removed RLC (Sus scrofa, UniProt P79293); experiment: NADH-coupled actin-activated ATPase assay, myosin + removed RLC; type: biochemical; conditions: 2 μM myosin, rabbit skeletal actin, 25° C., 1% DMSO
T2 construct: Full-length myosin was resuspended to 1 mg/mL
Method: as §1, §2

T1 sequence (P79293 whole entry): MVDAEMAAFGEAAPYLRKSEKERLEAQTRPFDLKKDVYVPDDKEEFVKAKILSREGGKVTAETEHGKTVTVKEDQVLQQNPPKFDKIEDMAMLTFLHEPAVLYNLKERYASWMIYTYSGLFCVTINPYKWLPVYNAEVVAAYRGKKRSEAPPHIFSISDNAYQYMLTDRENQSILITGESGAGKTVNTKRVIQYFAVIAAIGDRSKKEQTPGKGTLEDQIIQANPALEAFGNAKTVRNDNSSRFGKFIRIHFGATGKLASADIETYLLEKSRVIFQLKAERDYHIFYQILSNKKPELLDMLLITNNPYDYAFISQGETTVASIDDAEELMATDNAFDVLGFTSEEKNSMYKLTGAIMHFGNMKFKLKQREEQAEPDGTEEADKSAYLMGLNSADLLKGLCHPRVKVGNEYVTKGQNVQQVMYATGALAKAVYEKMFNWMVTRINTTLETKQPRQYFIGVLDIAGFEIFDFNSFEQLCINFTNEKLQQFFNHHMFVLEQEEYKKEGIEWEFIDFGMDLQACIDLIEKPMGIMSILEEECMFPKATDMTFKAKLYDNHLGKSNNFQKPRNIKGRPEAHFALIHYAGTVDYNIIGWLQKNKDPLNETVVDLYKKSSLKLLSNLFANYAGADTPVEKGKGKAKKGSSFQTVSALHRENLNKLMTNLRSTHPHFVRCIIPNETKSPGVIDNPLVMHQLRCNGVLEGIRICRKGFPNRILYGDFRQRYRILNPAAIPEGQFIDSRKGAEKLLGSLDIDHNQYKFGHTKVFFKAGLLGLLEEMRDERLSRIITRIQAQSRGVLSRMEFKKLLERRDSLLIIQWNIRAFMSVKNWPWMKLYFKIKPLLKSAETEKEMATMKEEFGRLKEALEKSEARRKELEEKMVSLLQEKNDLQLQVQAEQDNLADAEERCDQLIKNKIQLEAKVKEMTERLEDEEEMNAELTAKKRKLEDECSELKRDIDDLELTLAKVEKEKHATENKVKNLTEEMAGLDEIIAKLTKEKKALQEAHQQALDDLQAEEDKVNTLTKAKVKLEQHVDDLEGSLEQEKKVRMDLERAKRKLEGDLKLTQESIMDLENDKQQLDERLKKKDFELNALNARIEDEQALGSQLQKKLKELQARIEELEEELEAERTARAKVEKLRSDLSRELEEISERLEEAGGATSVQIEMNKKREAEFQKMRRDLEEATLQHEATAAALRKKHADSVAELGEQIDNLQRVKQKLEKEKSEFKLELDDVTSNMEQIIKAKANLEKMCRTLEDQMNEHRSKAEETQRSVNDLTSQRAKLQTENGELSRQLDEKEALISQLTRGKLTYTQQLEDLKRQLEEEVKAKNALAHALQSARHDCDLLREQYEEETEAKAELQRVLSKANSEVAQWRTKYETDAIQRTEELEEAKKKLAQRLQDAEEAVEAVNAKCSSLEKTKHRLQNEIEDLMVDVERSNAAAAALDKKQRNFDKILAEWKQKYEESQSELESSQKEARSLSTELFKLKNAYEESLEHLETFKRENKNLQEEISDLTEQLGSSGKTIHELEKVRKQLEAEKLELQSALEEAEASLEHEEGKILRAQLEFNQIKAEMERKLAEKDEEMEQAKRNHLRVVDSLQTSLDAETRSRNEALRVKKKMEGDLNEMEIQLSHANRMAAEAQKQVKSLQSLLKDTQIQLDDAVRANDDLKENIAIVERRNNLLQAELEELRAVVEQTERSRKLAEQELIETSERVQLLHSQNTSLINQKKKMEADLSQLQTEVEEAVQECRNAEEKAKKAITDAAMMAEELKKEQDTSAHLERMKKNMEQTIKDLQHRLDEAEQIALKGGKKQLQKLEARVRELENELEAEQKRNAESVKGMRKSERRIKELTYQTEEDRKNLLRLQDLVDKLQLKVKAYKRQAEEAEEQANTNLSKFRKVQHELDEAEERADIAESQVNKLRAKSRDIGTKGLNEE
T2 sequence (P79293 whole entry): as above

Compound | Potency, Full-length myosin + exchanged human ventricle RLC [1] | Potency, Full-length myosin + RLC removed (myosin+removed RLC)
CC(NC(=O)CN1Cc2cc(F)ccc2NC1=O)c1ccc(C#N)cc1F (single isomer, unassigned) [Compound B206] | 0.68 µM | >100.0 µM
O=C(CN1Cc2cc(F)ccc2NC1=O)N[C@@H]1COc2cc(F)cc(F)c21 [Compound B145] | 0.67 µM | >100.0 µM
C[C@H](NC(=O)CN1Cc2c(ccc(F)c2F)NC1=O)c1ncc(F)cc1F [Compound B191] | 0.44 µM | >100.0 µM
C[C@H](NC(=O)CN1Cc2cc(F)ccc2NC1=O)c1ncc(C#N)cc1F [Compound B199] | 0.629 µM | >100.0 µM
C[C@H](NC(=O)CN1Cc2cc(F)ccc2NC1=O)c1ccc(F)cc1F [Compound B247, N-[(1S)-1-(2,4-Difluorophenyl)ethyl]-2-(6-fluoro-2-oxo-1,4-dihydroquinazolin-3-yl)acetamide] | 1.02 µM | >100.0 µM
O=C(CN1C(=O)Nc2cccnc2C12CC2)N[C@@H]1COc2cc(F)cc(F)c21 [Compound N33] | 0.40 µM | >100.0 µM

Results, then the compound that gave them:

Potency, Full-length myosin + exchanged human ventricle RLC [1] | Potency, Full-length myosin + RLC removed (myosin+removed RLC) | Compound
0.69 µM | >100.0 µM | N#Cc1cnc2c(c1)OCC2NC(=O)CN1Cc2c(ccc(F)c2F)NC1=O (single isomer, unassigned) [Compound B65]
13.90 µM | >100.0 µM | C[C@@H](NC(=O)CN1Cc2c(ccc(F)c2F)NC1=O)c1ncc(C#N)cc1F [Compound B141, (R)—N-(1-(5-cyano-3-fluoropyridin-2-yl)ethyl)-2-(5,6-difluoro-2-oxo-1,4-dihydroquinazolin-3(2H)-yl)acetamide]
0.48 µM | >100.0 µM | O=C(CN1Cc2c(ccc(F)c2F)NC1=O)N[C@@H]1COc2cc(F)cc(F)c21 [Compound B147]
0.33 µM | >100.0 µM | C[C@H](NC(=O)CN1Cc2c(ccc(F)c2F)NC1=O)c1ccc(C#N)cc1F [Compound B189]
